Assay results as given in US6747148B2, “Sulfonamide derivatives as inhibitors of bone resorption and as inhibitors of cell adhesion” (Hoechst Marion Roussel Deutschland GmbH, priority 1998, dated 2004).

The molecules below were run against T1, vitronectin receptor αvβ3 (Homo sapiens, UniProt P05106+P06756) (assay: Inhibition of binding of 293 cells to human vitronectin (Vn/293 cell test)). Details: 293 cells cotransfected with αv and β3 subunits; plate coated with human vitronectin; 90 minutes at 37° C.
T1 construct: expressed in transfected cells
T1 sequence (P06756 31-889 limits assumed): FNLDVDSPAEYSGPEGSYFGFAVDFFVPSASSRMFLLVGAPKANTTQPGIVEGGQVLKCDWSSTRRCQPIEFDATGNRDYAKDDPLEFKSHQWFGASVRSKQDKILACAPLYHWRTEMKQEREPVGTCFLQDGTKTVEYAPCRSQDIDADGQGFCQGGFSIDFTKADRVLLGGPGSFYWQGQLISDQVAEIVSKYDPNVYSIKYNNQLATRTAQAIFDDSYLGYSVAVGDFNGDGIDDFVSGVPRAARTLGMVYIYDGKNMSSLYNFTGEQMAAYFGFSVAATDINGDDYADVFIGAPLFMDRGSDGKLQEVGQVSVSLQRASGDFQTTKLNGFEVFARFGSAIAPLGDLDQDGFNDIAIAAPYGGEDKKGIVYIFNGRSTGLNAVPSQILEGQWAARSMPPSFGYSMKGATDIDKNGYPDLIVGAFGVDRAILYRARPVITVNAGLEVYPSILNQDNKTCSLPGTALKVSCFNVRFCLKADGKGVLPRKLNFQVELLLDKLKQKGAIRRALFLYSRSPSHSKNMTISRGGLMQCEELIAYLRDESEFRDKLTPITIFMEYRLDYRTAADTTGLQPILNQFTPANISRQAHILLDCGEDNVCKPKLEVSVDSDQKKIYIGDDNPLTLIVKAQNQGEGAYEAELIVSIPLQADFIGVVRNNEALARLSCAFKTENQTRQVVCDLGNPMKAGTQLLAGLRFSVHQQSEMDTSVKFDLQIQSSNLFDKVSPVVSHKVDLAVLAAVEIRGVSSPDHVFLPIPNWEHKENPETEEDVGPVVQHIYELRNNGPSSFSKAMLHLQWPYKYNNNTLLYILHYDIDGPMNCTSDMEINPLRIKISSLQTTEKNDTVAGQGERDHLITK
T1 sequence (P06756 891-1048 partner limits assumed): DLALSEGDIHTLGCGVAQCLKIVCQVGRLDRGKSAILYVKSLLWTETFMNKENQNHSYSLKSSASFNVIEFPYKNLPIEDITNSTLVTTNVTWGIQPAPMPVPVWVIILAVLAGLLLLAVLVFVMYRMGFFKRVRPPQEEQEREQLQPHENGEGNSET
T1 sequence (P05106 27-788): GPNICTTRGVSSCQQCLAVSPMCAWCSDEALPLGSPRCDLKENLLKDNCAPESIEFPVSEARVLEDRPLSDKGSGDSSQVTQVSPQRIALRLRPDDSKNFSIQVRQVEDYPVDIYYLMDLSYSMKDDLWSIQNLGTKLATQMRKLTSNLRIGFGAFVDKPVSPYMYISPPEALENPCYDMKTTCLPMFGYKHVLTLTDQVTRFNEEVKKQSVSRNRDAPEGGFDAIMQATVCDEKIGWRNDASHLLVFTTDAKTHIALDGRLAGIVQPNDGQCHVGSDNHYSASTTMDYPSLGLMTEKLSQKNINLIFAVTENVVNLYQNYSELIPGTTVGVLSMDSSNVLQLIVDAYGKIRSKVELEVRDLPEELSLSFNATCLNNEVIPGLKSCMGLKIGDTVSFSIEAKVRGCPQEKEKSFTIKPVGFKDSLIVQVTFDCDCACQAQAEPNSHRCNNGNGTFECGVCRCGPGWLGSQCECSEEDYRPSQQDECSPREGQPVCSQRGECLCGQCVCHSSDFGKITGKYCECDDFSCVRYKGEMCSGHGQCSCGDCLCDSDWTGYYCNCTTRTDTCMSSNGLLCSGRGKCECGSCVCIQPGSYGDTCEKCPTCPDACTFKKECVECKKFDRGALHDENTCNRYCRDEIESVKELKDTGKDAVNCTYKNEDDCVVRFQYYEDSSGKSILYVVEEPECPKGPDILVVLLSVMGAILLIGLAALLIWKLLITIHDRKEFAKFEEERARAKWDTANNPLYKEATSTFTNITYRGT
Type: cell-based
From the text: Test for the Measurement of the Inhibition of Binding of 293 Cells to Human Vitronectin (Vn/293 Cell Test)
1. Purification of Human Vitronectin
Human vitronectin is isolated from human plasma and purified by affinity chromatography according to the method of Yatohyo et al., Cell Structure and Function […]: 281-292 (1988).
293 cells, a human embryonic kidney cell line, which are cotransfected with DNA sequences for the αv and β3 subunits of the vitronectin receptor αvβ3, are selected for a high rate of expression (>500,000 αvβ3 receptors/cell) according to the FACS method. The selected cells are cultured and sorted again by means of FACS in order to obtain a stable cell line (15 D) with expression rates >1,000,000 copies of αvβ3 per cell.
A Linbro 96-well tissue culture plate with a flat bottom is coated overnight at 4° C. with human vitronectin (0.01 mg/ml, 0.05 ml/well) in phosphate-buffered saline solution (PBS) and then blocked with 0.5% strength BSA (bovine serum albumin). Solutions of the test substances from 10^−10 mol/l to 2×10^−3 mol/l in glucose-containing DMEM medium are prepared and 0.05 ml/well of the solution are added to the plate in each case. The cells which express high levels of αvβ3 (for example 15 D) are suspended in glucose-containing DMEM medium and the suspension is adjusted to a content of 25,000 cells/0.05 ml of medium. 0.05 ml of this cell suspension is added to each well and the plate is incubated at 37° C. for 90 minutes. The plate is washed three times with warm PBS in order to remove unbound cells. The bound cells are lyzed in citrate buffer (25 mM, pH 5.0) which contains 0.25% Triton X-100. The hexoseamidase substrate p-nitrophenyl-N-acetyl-β-D-glucosaminide is then added and the plate is incubated at 37° C. for 90 minutes. The reaction is stopped with a glycine (50 mM)/EDTA (5 mM) buffer (ph 10.4), and the absorption of each well is measured at 405-650 nm. The data are analyzed according to standard processes.

SMILES	IC50 [nM]
O=C(CCc1ccc(C(=O)NC[C@H](NS(=O)(=O)c2cccs2)C(=O)O)cc1)NC1=NCCCN1 [Example 18, (2S)-3-(4-(2-(1,4,5,6-Tetrahydropyrimidin-2-ylcarbamoyl)-ethyl)-benzoylamino)-2-(thiophene-2-sulfonylamino)-propionic acid]	14
CS(=O)(=O)N[C@@H](CNC(=O)c1ccc(CCC(=O)NC2=NCCCN2)cc1)C(=O)O [Example 24, (2S)-2-Methanesulfonylamino-3-(4-(2-(1,4,5,6-tetrahydropyrimidin-2-ylcarbamoyl)-ethyl)-benzoylamino)-propionic acid]	100
O=C(CCc1ccc(C(=O)NC[C@H](NS(=O)(=O)c2cccc3cccnc23)C(=O)O)cc1)NC1=NCCCN1 [Example 2, (2S)-2-(Quinoline-8-sulfonylamino)-3-(4-(2-(1,4,5,6-tetrahydropyrimidin-2-ylcarbamoyl)-ethyl)-benzoylamino)-propionic acid]	52
O=C(CCc1ccc(C(=O)NC[C@H](NS(=O)(=O)/C=C/c2ccccc2)C(=O)O)cc1)NC1=NCCCN1 [Example 7, (2S)-2-(2-Phenyl-ethenesulfonylamino)-3-(4-(2-(1,4,5,6-tetrahydropyrimidin-2-ylcarbamoyl)-ethyl)-benzoylamino)-propionic acid]	28
O=C(CCc1ccc(C(=O)NC[C@H](NS(=O)(=O)c2cccc(Cl)c2)C(=O)O)cc1)NC1=NCCCN1 [Example 14, (2S)-2-(3-Chloro-benzenesulfonylamino)-3-(4-(2-(1,4,5,6-tetrahydropyrimidin-2-ylcarbamoyl)-ethyl)-benzoylamino)-propionic acid]	10
CC(=O)Nc1ccc(S(=O)(=O)N[C@@H](CNC(=O)c2ccc(CCC(=O)NC3=NCCCN3)cc2)C(=O)O)cc1 [Example 3, (2S)-2-(4-Acetylamino-benzenesulfonylamino)-3-(4-(2-(1,4,5,6-tetrahydropyrimidin-2-ylcarbamoyl)-ethyl)-benzoylamino)-propionic acid]	27
O=C(CCc1ccc(C(=O)NC[C@H](NS(=O)(=O)c2ccc(Cl)cc2)C(=O)O)cc1)NC1=NCCCN1 [Example 13, (2S)-^2-(4-Chloro-benzenesulfonylamino)-3-(4-(2-(1,4,5,6-tetrahydropyrimidin-2-ylcarbamoyl)-ethyl)-benzoylamino)-propionic acid]	27
CCCS(=O)(=O)N[C@@H](CNC(=O)c1ccc(CCC(=O)NC2=NCCCN2)cc1)C(=O)O [Example 6, (2S)-2-(Propane-1-sulfonylamino)-3-(4-(2-(1,4,5,6-tetrahydropyrimidin-2-ylcarbamoyl)-ethyl)-benzoylamino)-propionic acid]	32
Cc1cc(C)c(S(=O)(=O)N[C@@H](CNC(=O)c2ccc(CCC(=O)NC3=NCCCN3)cc2)C(=O)O)c(C)c1 [Example 21, (2S)-3-(4-(2-(1,4,5,6-Tetrahydropyrimidin-2-ylcarbamoyl)-ethyl)-benzoylamino)-2-(2,4,6-trimethyl-benzenesulfonylamino)-propionic acid]	21
O=C(CCc1ccc(C(=O)NC[C@H](NS(=O)(=O)c2ccc(-c3ccccc3)cc2)C(=O)O)cc1)NC1=NCCCN1 [Example 19, (2S)-2-(Biphenyl-4-sulfonylamino)-3-(4-(2-(1,4,5,6-tetrahydropyrimidin-2-ylcarbamoyl)-ethyl)-benzoylamino)-propionic acid]	38
O=C(CCc1ccc(C(=O)NC[C@H](NS(=O)(=O)c2cccc3ccccc23)C(=O)O)cc1)NC1=NCCCN1 [Example 1, (2S)-2-(Naphthalene-1-sulfonylamino)-3-(4-(2-(1,4,5,6-tetrahydropyrimidin-2-ylcarbamoyl)-ethyl)-benzoylamino)-propionic acid]	6
CCCc1ccc(S(=O)(=O)N[C@@H](CNC(=O)c2ccc(CCC(=O)NC3=NCCCN3)cc2)C(=O)O)cc1 [Example 8, (2S)-2-(4-Propyl-benzenesulfonylamino)-3-(4-(2-(1,4,5,6-tetrahydropyrimidin-2-ylcarbamoyl)-ethyl)-benzoylamino)-propionic acid]	20
COc1ccc(S(=O)(=O)N[C@@H](CNC(=O)c2ccc(CCC(=O)NC3=NCCCN3)cc2)C(=O)O)cc1 [Example 16, (2S)-2-(4-Methoxy-benzenesulfonylamino)-3-(4-(2-(1,4,5,6-tetrahydropyrimidin-2-ylcarbamoyl)-ethyl)-benzoylamino)-propionic acid]	26
CC1(C)C2CCC1(CS(=O)(=O)N[C@@H](CNC(=O)c1ccc(CCC(=O)NC3=NCCCN3)cc1)C(=O)O)C(=O)C2 (stereo partly drawn) [Example 12, (2S)-2-(7,7-Dimethyl-2-oxo-bicyclo[2.2.1]hept-1-ylmethanesulfonylamino)-3-(4-(2-(1,4,5,6-tetrahydropyrimidin-2-ylcarbamoyl)-ethyl)-benzoylamino)-propionic acid]	27
CCCCS(=O)(=O)N[C@@H](CNC(=O)c1ccc(CCC(=O)NC2=NCCCN2)cc1)C(=O)O [Example 23, (2S)-2-(Butane-1-sulfonylamino)-3-(4-(2-(1,4,5,6-tetrahydropyrimidin-2-ylcarbamoyl)-ethyl)-benzoylamino)-propionic acid]	30
O=C(CCc1ccc(C(=O)NC[C@H](NS(=O)(=O)c2ccccc2)C(=O)O)cc1)NC1=NCCCN1 [Example 17, (2S)-2-Benzenesulfonylamino-3-(4-(2-(1,4,5,6-tetrahydropyrimidin-2-ylcarbamoyl)-ethyl)-benzoylamino)-propionic acid]	9
CC(C)CS(=O)(=O)N[C@@H](CNC(=O)c1ccc(CCC(=O)NC2=NCCCN2)cc1)C(=O)O [Example 9, (2S)-2-(2-Methyl-propane-1-sulfonylamino)-3-(4-(2-(1,4,5,6-tetrahydropyrimidin-2-ylcarbamoyl)-ethyl)-benzoylamino)-propionic acid]	69
CCCCOc1ccc(S(=O)(=O)N[C@@H](CNC(=O)c2ccc(CCC(=O)NC3=NCCCN3)cc2)C(=O)O)cc1 [Example 10, (2S)-2-(4-Butoxy-benzenesulfonylamino)-3-(4-(2-(1,4,5,6-tetrahydropyrimidin-2-ylcarbamoyl)-ethyl)-benzoylamino)-propionic acid]	29
O=C(CCc1ccc(C(=O)NC[C@H](NS(=O)(=O)c2cccc(C(F)(F)F)c2)C(=O)O)cc1)NC1=NCCCN1 [Example 15, (2S)-3-(4-(2-(1,4,5,6-Tetrahydropyrimidin-2-ylcarbamoyl)-ethyl)-benzoylamino)-2-(3-trifluoromethyl-benzenesulfonylamino)-propionic acid]	6
N#Cc1ccccc1S(=O)(=O)N[C@@H](CNC(=O)c1ccc(CCC(=O)NC2=NCCCN2)cc1)C(=O)O [Example 11, (2S)-2-(2-Cyano-benzenesulfonylamino)-3-(4-(2-(1,4,5,6-tetrahydropyrimidin-2-ylcarbamoyl)-ethyl)-benzoylamino)-propionic acid]	24
O=C(CCc1ccc(C(=O)NC[C@H](NS(=O)(=O)c2ccc3ccccc3c2)C(=O)O)cc1)NC1=NCCCN1 [Example 20, (2S)-2-(Naphthalene-2-sulfonylamino)-3-(4-(2-(1,4,5,6-tetrahydropyrimidin-2-ylcarbamoyl)-ethyl)-benzoylamino)-propionic acid]	5
CC(C)(C)c1ccc(S(=O)(=O)N[C@@H](CNC(=O)c2ccc(CCC(=O)NC3=NCCCN3)cc2)C(=O)O)cc1 [Example 5, (2S)-2-(4-tert-Butyl-benzenesulfonylamino)-3-(4-(2-(1,4,5,6-tetrahydropyrimidin-2-ylcarbamoyl)-ethyl)-benzoylamino)-propionic acid]	18
O=C(CCc1ccc(C(=O)NC[C@H](NS(=O)(=O)c2ccc(C(F)(F)F)cc2)C(=O)O)cc1)NC1=NCCCN1 [Example 22, (2S)-3-(4-(2-(1,4,5,6-Tetrahydropyrimidin-2-ylcarbamoyl)-ethyl)-benzoylamino)-2-(4-trifluoromethyl-benzenesulfonylamino)-propionic acid]	10
